Assay results as given in patent publication US20200102295A1, “NITROCATECHOL DERIVATIVES AS COMT INHIBITORS” (BIAL - PORTELA & CA, S.A., priority 2005, published 2020).
Where “and” joins values, the source holds several entries; their conditions need not be identical. Equal values may be shown once.

Key:
[1] = molecular target: T1, mouse liver COMT (Mus musculus, UniProt O88587); experiment: Mouse liver COMT activity after oral administration of test compounds; format: in vivo; conditions: 3 mg/kg oral, 3 h after administration
T1 construct: Aliquots of 0.5 ml of liver homogenates were preincubated; from tissue; host or cells: mouse liver homogenate (NMRI mice, dosed orally; ex vivo activity)
T1 sequence (O88587 1-265): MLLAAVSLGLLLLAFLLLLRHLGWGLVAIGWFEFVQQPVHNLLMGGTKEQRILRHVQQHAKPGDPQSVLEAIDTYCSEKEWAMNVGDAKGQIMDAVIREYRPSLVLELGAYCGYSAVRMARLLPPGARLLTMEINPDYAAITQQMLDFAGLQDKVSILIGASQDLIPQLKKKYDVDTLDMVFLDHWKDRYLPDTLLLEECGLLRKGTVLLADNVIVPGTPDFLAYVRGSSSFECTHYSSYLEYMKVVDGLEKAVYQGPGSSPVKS

[2] = tested on: Neuro 2A mouse neuroblastoma cells; experiment: Cell toxicity: Neuro 2A cell viability (calcein-AM); format: cell-based; conditions: Neuro 2A cells, 30 μM, 24 h exposure
[3] = tested on: plasma levels of L-DOPA and 3-O-methyl-L-DOPA (3-OMD); experiment: Levels of L-DOPA and 3-O-methyl-L-DOPA in plasma of rats treated with L-DOPA plus benserazide; format: in vivo, rat; conditions: 3 mg/kg oral, 2 h after administration; for L-DOPA % increase (plasma level, % control) / 3-OMD % reduction (plasma level, % control): L-DOPA plus benserazide 1 h before plasma collection; for 3-OMD % reduction (plasma level, % control): given with minus sign; for L-Dopa/3-OMD: plasma ratio
[4] = molecular target: T2, rat liver COMT (Rattus norvegicus, UniProt P22734); experiment: Rat liver COMT activity after oral administration of test compounds; format: in vivo; conditions: for Rat Liver COMT activity (% control): 3 mg/kg oral
T2 construct: the organs were immediately removed and homogenised in 5 mM phosphate buffer of pH 7.8; from tissue; host or cells: rat liver homogenate (Wistar rats, dosed orally; ex vivo activity)
T2 sequence (P22734 1-264): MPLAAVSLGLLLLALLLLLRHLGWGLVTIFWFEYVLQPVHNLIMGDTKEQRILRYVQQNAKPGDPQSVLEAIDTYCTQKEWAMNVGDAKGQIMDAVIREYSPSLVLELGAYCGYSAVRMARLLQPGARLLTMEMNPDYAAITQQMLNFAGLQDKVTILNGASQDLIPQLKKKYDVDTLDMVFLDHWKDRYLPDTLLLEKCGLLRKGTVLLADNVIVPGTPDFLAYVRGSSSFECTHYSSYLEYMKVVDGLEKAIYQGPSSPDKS

Row | Structure (SMILES) | COMT activity (% of control) [1] | % of viable cells [2] [%] | L-DOPA % increase (plasma level, % control) [3] [%] | 3-OMD % reduction (plasma level, % control) [3] [%] | L-Dopa/3-OMD [3] | Rat Liver COMT activity (% control) ([4]; 1 h after administration) | Rat Liver COMT activity (% control) ([4]; 3 h after administration) | Rat Liver COMT activity (% control) ([4]; 6 h after administration) | Rat Liver COMT activity (% control) ([4]; 9 h after administration) | inhibition at 3 mg/kg ([4]; rat, po, read-out: COMT inhibition nine hours after administration) [%] | COMT activity (% of control) ([1]; 3 mg/kg)
1 | Cc1c(Cl)c(C)[n+]([O-])c(Cl)c1-c1noc(-c2cc(O)c(O)c([N+](=O)[O-])c2)n1 [Compound 45, 5-[3-(2,5-Dichloro-4,6-dimethyl-1-oxy-pyridin-3-yl)-[1,2,4]oxadiazol-5-yl]-3-nitrobenzene-1,2-diol] | 30.4 % of control | 86.6 | 100.8 | −54.3 | 4.4 |  |  |  |  |  | 
2 | Cc1c(Cl)c(C)[n+]([O-])c(Br)c1-c1noc(-c2cc(O)c(O)c([N+](=O)[O-])c2)n1 [Compound 47, 5-[3-(2-Bromo-5-chloro-4,6-dimethyl-1-oxy-pyridin-3-yl)-[1,2,4]oxadiazol-5-yl]-3-nitrobenzene-1,2-diol] | 25.2 % of control | 81.2 | 102.9 | −58.5 | 4.9 | 10.6 | 4.0 | 3.8 | 8.2 |  | 
3 | O=[N+]([O-])c1cc(-c2nc(-c3c[n+]([O-])ccc3C(F)(F)F)no2)cc(O)c1O [Compound 18, 3-Nitro-5-[3-(1-oxy-4-trifluoromethyl-pyridin-3-yl)-[1,2,4]oxadiazol-5-yl]-benzene-1,2-diol] | 21.2 % of control | 93.4 | 61.4 | −63.9 | 4.5 | 5.2 | 19.9 | 43.0 | 57.4 |  | 
4 | Cc1ccc(C(=O)c2cc(O)c(O)c([N+](=O)[O-])c2)cc1 [Tolcapone, 3,4-dihydroxy-4′ -methyl-5-nitrobenzophenone, reference compound] | 13.9 % of control | 27.2 | 202.4 | −89.0 | 27.6 | 18.3 | 28.6 | 56.8 | 83.9 | ~16 | 
5 | Cc1c(C)c(C)[n+]([O-])c(Cl)c1-c1noc(-c2cc(O)c(O)c([N+](=O)[O-])c2)n1 [Compound 41, 5-[3-(2-Chloro-4,5,6-trimethyl-1-oxy-pyridin-3-yl)-[1,2,4]oxadiazol-5-yl]-3-nitrobenzene-1,2-diol] | 14 % of control | 95.1 | 95.2 | −72.3 | 7.1 | 21.2 | 9.3 | 18.8 | 39.7 |  | 
6 | O=[N+]([O-])c1cc(-c2nc(-c3ccc[n+]([O-])c3C(F)(F)F)no2)cc(O)c1O [Compound 42, 3-Nitro-5-[3-(1-oxy-2-trifluoromethyl-pyridin-3-yl)-[1,2,4]oxadiazol-5-yl]-benzene-1,2-diol] | 9.4 % of control | 96.4 | 30.7 | −43.4 | 2.3 | 3.6 | 6.1 | 12.3 | 30.9 |  | 
7 | Cc1c(-c2noc(-c3cc(O)c(O)c([N+](=O)[O-])c3)n2)ccc(C(F)(F)F)[n+]1[O-] [Compound 29, 5-[3-(2-Methyl-1-oxy-6-trifluoromethyl-pyridin-3-yl)-[1,2,4]oxadiazol-5-yl]-3-nitro-benzene-1,2-diol] | 10.9 % of control | 62.2 | 105.1 | −80.7 | 10.6 | 1.2 | 18.5 | 39.7 | 56.4 |  | 
8 | O=[N+]([O-])c1cc(-c2nc(Cc3ccc(C(F)(F)F)[n+]([O-])c3)no2)cc(O)c1O [Compound 43, 3-Nitro-5-[3-(1′-oxy-6-trifluoromethyl-pyridine-3-ylmethyl)-[1,2,4]oxadiazol-5-yl]-benzene-1,2-diol] | 27.2 % of control | 101.5 | 74.9 | −48.3 | 3.4 | 16.1 | 30.6 | 64.3 | 77.9 |  | 
9 | O=[N+]([O-])c1cc(-c2nc(-c3ccc(Cl)[n+]([O-])c3)no2)cc(O)c1O [Compound 23, 5-[3-(6-Chloro-1-oxy-pyridin-3-yl)-[1,2,4]oxadiazol-5-yl]-3-nitro-benzene-1,2-diol] | 43 % of control | 41.1 |  |  |  |  |  |  |  |  | 
10 | O=[N+]([O-])c1cc(-c2nc(-c3cc[n+]([O-])cc3)no2)cc(O)c1O [Compound 4, 3-Nitro-5-[3-(1-oxy-pyridin-4-yl)-[1,2,4]oxadiazol-5-yl]-benzene-1,2-diol] | 42.1 % of control | 98.3 |  |  |  |  |  |  |  |  | 
11 | CCN(CC)C(=O)/C(C#N)=C/c1cc(O)c(O)c([N+](=O)[O-])c1 [Entacapone, (E)-2-cyano-N,N-diethyl-3-(3,4-dihydroxy-5-nitrophenyl)acrylamide, reference compound] |  |  | 68.5 | −55.6 | 3.8 |  |  |  |  |  | 
12 | O=[N+]([O-])c1cc(-c2nc(-c3cccc[n+]3[O-])no2)cc(O)c1O [Compound 6, 3-Nitro-5-[3-(1-oxy-pyridin-2-yl)-[1,2,4]oxadiazol-5-yl]-benzene-1,2-diol] | 101.0 % of control | 107.1 |  |  |  |  |  |  |  |  | 
13 | Cc1cc(C)[n+]([O-])c(Br)c1-c1noc(-c2cc(O)c(O)c([N+](=O)[O-])c2)n1 [Compound 38, 5-[3-(2-Bromo-4,6-dimethyl-1-oxy-pyridin-3-yl)-[1,2,4]oxadiazol-5-yl]-3-nitro-benzene-1,2-diol] | 16.3 % of control | 86.0 |  |  |  |  |  |  |  |  | 
14 | O=[N+]([O-])c1cc(-c2nc(-c3cc[n+]([O-])c(-c4ccoc4)c3)no2)cc(O)c1O [Compound 10, 5-[3-(2-Furan-3-yl-1-oxy-pyridine-4-yl)-[1,2,4]oxadiazol-5-yl]-3-nitro-benzene-1,2-diol] | 95.2 % of control | 69.3 |  |  |  |  |  |  |  |  | 
15 | Cc1nnc(-c2cc(O)c(O)c([N+](=O)[O-])c2)o1 [Compound 3, 5-(5-Methyl-[1,3,4]oxadiazol-2-yl)-3-nitro-benzene-1,2-diol] |  | 100.5 |  |  |  |  |  |  |  |  | 64 % of control and 63.6 % of control
16 | O=[N+]([O-])c1cc(-c2nc(Cc3ccc[n+]([O-])c3)no2)cc(O)c1O [Compound 39, 3-Nitro-5-[3-(1′-oxy-pyridin-3-ylmethyl)-[1,2,4]oxadiazol-5-yl]-benzenediol] | 53.8 % of control | 94.9 |  |  |  |  |  |  |  |  | 
17 | O=[N+]([O-])c1cc(-c2nc(-c3ccc[n+]([O-])c3)no2)cc(O)c1O [Compound 5, 3-Nitro-5-[3-(1-oxy-pyridin-3-yl)-[1,2,4]oxadiazol-5-yl]-benzene-1,2-diol] | 58.4 % of control | 93.8 |  |  |  |  |  |  |  |  | 
18 | Cc1cc(-c2noc(-c3cc(O)c(O)c([N+](=O)[O-])c3)n2)cc(C)[n+]1[O-] [Compound 15, 5-[3-(2,6-Dimethyl-1-oxy-pyridine-4-yl)-[1,2,4]oxadiazol-5-yl]-3-nitro-benzene-1,2-diol] | 79.2 % of control | 97.1 |  |  |  |  |  |  |  |  | 
19 | O=[N+]([O-])c1cc(-c2nc(-c3cc[n+]([O-])c(-c4ccccc4)c3)no2)cc(O)c1O [Compound 9, 3-Nitro-5-[3-(1-oxy-2-phenyl-pyridin-4-yl)-[1,2,4]oxadiazol-5-yl]-benzene-1,2-diol] | 80.6 % of control | 79.7 |  |  |  |  |  |  |  |  | 
